Reference: patent US6399654B1, “Biflavanoids and derivatives thereof as antiviral agents” (priority 1995, dated 2002)
In brackets after ≈: the same amount, converted by molar mass. Several values for one entry are separate records, joined by “and”; a condition that tells them apart may be missing. Equal values may be shown once. Read-outs that look alike come from different tables or passages of the source.

Assays:
[1] = system: HSV-1; test: HSV-1 CPE inhibition in HFF cells; conditions: for HSV-1 SI (CC50/EC50): HFF Cells
[2] = system: 2.2.15 cells; test: HBV cytotoxicity assay, neutral red dye uptake in 2.2.15 cells; format: cell-based; conditions: Homo sapiens, read-out: IC50 (toxicity, neutral red dye uptake)
Experimental: The toxicity of the test compounds in cultures of 2.2.15 cells, grown to confluence in 96-well flat-bottomed tissue culture plates and treated with compounds as described above, were assayed at four concentrations each in triplicate cultures, in 3 to 10-fold steps. Untreated control cultures were maintained on each plate. On each plate, wells containing no cells were used to correct for light scattering.
Stock solutions of text drugs were prepared in DMSO.

[3] = system: Respiratory Syncytial Virus; test: microbe, parasite or virus in culture; format: cell-based; conditions: human respiratory syncytial virus, MA104; read-out: Neutral Red EC50
[4] = Cytotoxicity (CC50) in HFF cells in the herpes virus tests; conditions: human
[5] = system: HFF Cells; test: as above; conditions: HFF Cells; for HSV-2 CPE Inhibition CC50: HSV-2 test
[6] = system: Adenovirus Type 5; test: microbe, parasite or virus in culture; format: cell-based; conditions: Human mastadenovirus C, A549, read-out: CPE Inhibition EC50
[7] = system: Parainfluenza Type 3 Virus; test: organism not typed; format: cell-based; conditions: MA104; Parainfluenza Type 3 Virus; read-out: CPI Inhibition EC50
[8] = Cytotoxicity by neutral red dye uptake, MA-104 cells; conditions: African green monkey, Neutral Red IC50 (cytotoxic)
[9] = system: Parainfluenza Type 3 Virus; test: organism not typed; format: cell-based; conditions: MA104, read-out: Neutral Red EC50
[10] = system: Measles Virus; test: microbe, parasite or virus in culture; format: cell-based; conditions: Measles morbillivirus, BSC-1; Measles Virus; read-out: CPI Inhibition EC50
[11] = system: Hepatitis B Virus (HBV); test: HBV replication intermediates (RI, intracellular HBV DNA) in 2.2.15 cells; format: cell-based
Experimental: Test compounds were added daily for a nine continuous day period; the culture medium was collected and stored for analysis of extracellular (virion) HBV DNA after 0, 3, 6, and 9 days of treatment. The treated cells were lysed 24 hours following day 9 of treatment for the analysis of intracellular HBV genomic forms. The overall levels of HBV DNA (both extracellular and intracellular DNA) and the relative rate of HBV replication (intracellular DNA) were analyzed quantitatively. The analysis was performed using blot hybridization techniques and [^32P]-labeled HBV-specific probes. The HBV DNA levels were measured by comparison to known amounts of HBV DNA standards applied to every nitrocellulose membrane (gel or slot blot). An AMBIS beta scanner, which measures the radioactive decay of the hybridized probes directly from the nitrocellulose membranes, was used for the quantitative analysis. Standard curves, generated by multiple analyses, were used to correlate CPM measurements made by the beta scanner with relative levels of target HBV DNA. The levels of HBV virion DNA released into the culture medium were analyzed by a slot blot hybridization procedure. HBV DNA levels were then compared to those at day 0 to determine the effect of the test compound. A known positive drug was evaluated in parallel with test compounds in each test.

[12] = system: HSV-2; test: HSV-2 CPE inhibition in HFF cells; conditions: for HSV-2 SI (CC50/EC50): HFF Cells
[13] = system: Influenza B Panama/45/90; test: microbe, parasite or virus in culture; format: cell-based; conditions: Influenza B virus, MDCK; Influenza B Panama/45/90; read-out: CPE Inhibition EC50
[14] = Cytotoxicity in uninfected PHA-stimulated human PBM cells; conditions: human
[15] = in vitro; conditions: human
[16] = Cytotoxicity by neutral red dye uptake, BSC-1 cells; conditions: African green monkey
[17] = molecular target: T1, HIV-1 RT (Human immunodeficiency virus type 1 group M subtype B, UniProt P03366); test: Anti-HIV-1 RT assay (recombinant enzyme); format: biochemical
T1 construct: made in house; host or cells: Escherichia coli

[18] = system: Influenza A (H3N2) Beijing/32/92; test: microbe, parasite or virus in culture; format: cell-based, influenza A virus; conditions: Influenza A virus, MDCK; Influenza A (H3N2) Beijing/32/92; read-out: Neutral Red EC50
[19] = system: Influenza B Panama/45/90; test: microbe, parasite or virus in culture; format: cell-based; conditions: Influenza B virus, MDCK, read-out: Neutral Red EC50
[20] = range-finding, CMC vehicle, 200 mg/kg/day i.p. twice daily for 5 days
[21] = range-finding, DMSO, 75 mg/kg/day, 0.05 mL injection volume
[22] = range-finding, DMSO, 250 mg/kg/day i.p. twice daily for 5 days, 0.1 mL
[23] = robustaflavone in DMSO, 37.5 mg/kg/day i.p. bid × 5
[24] = robustaflavone in DMSO, 75 mg/kg/day i.p. bid × 5

**Q.** For `O=c1cc(-c2ccc(O)c(-c3c(O)cc4oc(-c5ccc(O)cc5)cc(=O)c4c3O)c2)oc2cc(O)cc(O)c12` [Robustaflavone (3), robustaflavone], which “HSV-1 SI (CC50/EC50)” value ([1]; listed as Robustaflavone(3)) is on record?
**A.** Its value is over 11.6.

**Q.** What about the “HSV-1 SI (CC50/EC50)” value ([1]; listed as robustaflavone (3)) of the same compound?
**A.** Its value is over 11.6.

**Q.** What about the EC50 ([1]; Human alphaherpesvirus 1, HFF, read-out: HSV-1 CPE Inhibition EC50) of the same compound?
**A.** The EC50 was 8.6 µg/mL (≈ 16 µM).

**Q.** What about the IC50 [2] of the same compound?
**A.** The IC50 was 337 µM.

**Q.** And the EC50 [3]?
**A.** Its EC50 is about 56 µg/mL (≈ 104 µM).

**Q.** And the CC50 at 3 days [4]?
**A.** The CC50 at 3 days was over 100 µg/mL.

**Q.** And the CC50 at 14 days [4]?
**A.** Its CC50 at 14 days is over 100 µg/mL.

**Q.** What about the “HSV-1 CPE Inhibition CC50” value ([5]; HSV-1 test) of the same compound?
**A.** Its value is over 100 µg/mL.

**Q.** And the “HSV-2 CPE Inhibition CC50” value ([5]; listed as Robustaflavone(3))?
**A.** The value was over 100 µg/mL.

**Q.** And the “HSV-2 CPE Inhibition CC50” value ([5]; listed as robustaflavone (3))?
**A.** Its value is over 100 µg/mL.

**Q.** And the EC50 [6]?
**A.** The EC50 was over 100 µg/mL.

**Q.** And the EC50 [7]?
**A.** Its EC50 is over 100 µg/mL.

**Q.** What about the IC50 ([8]; Parainfluenza Type 3 Virus test) of the same compound?
**A.** The IC50 was 79 µg/mL (≈ 147 µM).

**Q.** And the IC50 ([8]; Respiratory Syncytial Virus test)?
**A.** Its IC50 is about 100 µg/mL (≈ 186 µM).

**Q.** And the EC50 [9]?
**A.** Its EC50 is 39 µg/mL (≈ 72.4 µM).

**Q.** And the EC50 [10]?
**A.** Its EC50 is under 14 µg/mL.

**Q.** And the EC50 ([11]; Hepatitis B virus, read-out: EC50, HBV replication intermediates (RI) (intracellular DNA))?
**A.** The EC50 was 0.6 µM.

**Q.** And the EC50 ([11]; Hepatitis B virus, read-out: EC50, second value in parentheses)?
**A.** Its EC50 is 0.6 µM.

**Q.** And the EC90 ([11]; Hepatitis B virus, Table 2, value in parentheses, not explained, read-out: EC90, second value in parentheses)?
**A.** The EC90 was 5.6 µM.

**Q.** And the “SI (CC50/EC90), second value in parentheses” value ([11]; Table 2, value in parentheses, not explained)?
**A.** Its value is 60.

**Q.** And the “tolerability in the antiviral experiment (in words)” value (CMC, 200 and 100 mg/kg/day)?
**A.** The value was “well tolerated”.

**Q.** What about the “toxicity control mice killed” value (DMSO, 37.5 mg/kg/day) of the same compound?
**A.** The value was 2 of 3.

**Q.** What about the “toxicity in the antiviral experiment (in words)” value (DMSO, 75 mg/kg/day) of the same compound?
**A.** The value was “lethally toxic”.

**Q.** And the “toxicity in the antiviral experiment (in words)” value (DMSO, 75 and 37.5 mg/kg/day)?
**A.** The value was “toxic to the mice”.

**Q.** What about the “Toxicity Controls Surv/Total” value (female, BALB/c, mouse, in vivo, ip, 200 mg/kg/day) of the same compound?
**A.** Its value is 3/3.

**Q.** And the “Toxicity Controls Mean Weight Change” value (mouse, in vivo, ip, 200 mg/kg/day)?
**A.** Its value is 1.5 g.

**Q.** And the “Toxicity Controls Mean Weight Change” value (mouse, in vivo, ip, 1005 mg/kg/day)?
**A.** The value was 1.9 g.

**Q.** And the “tolerability (in words)” value [20]?
**A.** The value was “reasonably well tolerated”.

**Q.** What about the “weight lost in the 5-day treatment period” value [20] of the same compound?
**A.** Its value is 0.1 g.

**Q.** And the “survival (in words)” value [21]?
**A.** Its value is “all mice survived”.

**Q.** And the “weight lost during the 5-day treatment period” value [21]?
**A.** The value was 2 g.

**Q.** And the “tolerability (in words)” value [22]?
**A.** The value was “lethally toxic”.

**Q.** And the weight loss [22]?
**A.** Its weight loss is 6 g.

**Q.** And the “Toxicity Controls Surv/Total” value (robustaflavone in 0.4% CMC, 1005 mg/kg/day (so in the source) i.p. bid × 5)?
**A.** The value was 4/4.

**Q.** What about the “Toxicity Controls Mean Weight Change” value [23] of the same compound?
**A.** Its value is -0.8 g.

**Q.** And the “Toxicity Controls Surv/Total” value [23]?
**A.** The value was 1/3.

**Q.** What about the “Toxicity Controls Mean Weight Change” value [24] of the same compound?
**A.** The value was -1.7 g.

**Q.** What about the “Toxicity Controls Surv/Total” value [24] of the same compound?
**A.** Its value is 0/3.

**Q.** And the “HSV-2 SI (CC50/EC50)” value ([12]; listed as Robustaflavone(3))?
**A.** The value was over 11.8.

**Q.** What about the “HSV-2 SI (CC50/EC50)” value ([12]; listed as robustaflavone (3)) of the same compound?
**A.** The value was over 11.8.

**Q.** What about the EC50 ([12]; Human alphaherpesvirus 2, HFF, read-out: HSV-2 CPE Inhibition EC50) of the same compound?
**A.** The EC50 was 8.5 µg/mL (≈ 15.8 µM).

**Q.** What about the EC50 [13] of the same compound?
**A.** Its EC50 is 0.23 µg/mL (≈ 0.427 µM).

**Q.** What about the IC50 [14] of the same compound?
**A.** The IC50 was 77 µM.

**Q.** What about the IC50 [15] of the same compound?
**A.** Its IC50 is 56 µg/mL (≈ 104 µM).

**Q.** And the IC50 [16]?
**A.** Its IC50 is about 100 µg/mL (≈ 186 µM).

**Q.** What about the IC50 ([17]; Anti-HIV-1 RT IC50, values in parentheses or in words) of the same compound?
**A.** The IC50 was 65 µM.

**Q.** And the IC50 ([17]; HIV-1 RT IC50 (50% inhibition dose))?
**A.** Its IC50 is 62.6 µM and 65.4 µM.

**Q.** And the inhibition at 200 µg/mL ([17]; read-out: Anti-HIV-1 RT % Inhibition at 200 μg/ml)?
**A.** The inhibition at 200 µg/mL was 91.4%.

**Q.** And the EC50 [18]?
**A.** Its EC50 is 1.8 µg/mL (≈ 3.34 µM).

**Q.** What about the EC50 [19] of the same compound?
**A.** Its EC50 is 0.22 µg/mL (≈ 0.409 µM).
